From patent US12630560B2, “Solid forms, pharmaceutical compositions and preparation of heteroaromatic macrocyclic ether compounds” (Nuvalent, Inc., priority 2021, dated 2026)
Where a name gives a salt, the structure may show the parent alone. Each block holds one compound with its values, some of them ahead of it.

Tests used:
Format in all cases: physicochemical
[1] = 7-days stability studies of solid forms (storage, then XRPD and HPLC)
Procedure: Form 1 of Compound 1: Method. About 10 mg of Form 1 of Compound 1 was placed in a 2 ml vial and stored for 7 days under the following conditions: A) 40° C./75% RH (open vial); B) 25° C./60% RH (open vial); C) 80° C. (sealed vial). Solids were analyzed by XRPD and submitted for HPLC.
Form 2 of Compound 1: Method. Portions of Form 1 of Compound 1 (10 mg) were placed in 1.5 ml vials. One vial was stored for 7 days under each of the following conditions: A) 40° C./75% RH (open vial); B) 25° C./60% RH (open vial); C) 80° C. (sealed vial). Solids were analyzed by XRPD and submitted for HPLC.

[2] = Dynamic vapour sorption (DVS); details: for weight increase (DVS): relative humidity from about 0 to about 90%, about 25° C.
Procedure: Approximately, 10-20 mg of sample was placed into a mesh vapour sorption balance pan and loaded into a DVS Advantage dynamic vapour sorption balance by Surface Measurement Systems. The sample was subjected to a ramping profile from 40-90% relative humidity (RH) at 10% increments, maintaining the sample at each step until a stable weight had been achieved (dm/dt 0.004%, minimum step length 30 minutes, maximum step length 500 minutes) at 25° C. After completion of the sorption cycle, the sample was dried using the same procedure to 0% RH and then a second sorption cycle back to 40% RH. Two cycles were performed. The weight change during the sorption/desorption cycles were plotted, allowing for the hygroscopic nature of the sample to be determined. XRPD analysis was then carried out on any solid retained.

[3] = Stability study of Compound 1 (Form 1) drug substance at three storage conditions
Procedure: A stability study was conducted for Compound 1 (Form 1) at three storage conditions: (1) 5° C.±3° C., ambient relative humidity (RH), data collected at 0 and 1 month; (2) 25° C.±2° C., 60%±5% RH, data collected at 0, 1, 3, 6, 9, and 12 months; and (3) 40° C.±2° C., 75%±5% RH, data collected at 0, 1, 3, and 6 months.

[4] = Stability studies of Form A of a besylate salt (XRPD); details: 40° C. and 75% RH for 7 days
Description: No changes in form were observed by XRPD.

[5] = Compression test at 100 and 250 MPa (XRPD after compression)
Procedure: Approximately 100 mg of Form 1 of Compound 1 was placed inside a FT-IR press, and a pressure of 100 MPa was applied and held for 60 seconds. The resulting material was analyzed by XRPD.
Approximately 100 mg of Form 1 of Compound 1 was placed inside the apparatus of the compression clamp. This apparatus was placed inside the compression clamp and a pressure of 250 MPa was applied and hold for 60 seconds. The resulting material was analyzed by XRPD.

SMILES: CCn1ncc2c1-c1cnc(N)c(c1)O[C@H](C)c1cc(F)ccc1-c1nn(C)nc1C2 [Compound 1]
- chemical and physical stability (description, assay, related substances, water content, polymorphic form, chiral purity) ([3]; 25° C.±2° C./60%±5% RH, 12 months): No meaningful changes
- chemical and physical stability (description, assay, related substances, water content, polymorphic form, chiral purity) ([3]; 40° C.±2° C./75%±5% RH, 6 months): No meaningful changes
- compliance with acceptance criteria (purity at least 97%, individual impurities ≤0.2%, total ≤2.0%, enantiomeric purity at least 99.5%, Form 1) ([3]; all time points): complied with the acceptance criteria

SMILES: CCn1ncc2c1-c1cnc(N)c(c1)O[C@H](C)c1cc(F)ccc1-c1nn(C)nc1C2 [Form 1 of Compound 1]
- % Purity by HPLC ([1]; 25° C./60% RH (open vial), 7 days): 99.58%
- % Purity by HPLC ([1]; 40° C./75% RH (open vial), 7 days): 99.66%
- % Purity by HPLC ([1]; 80° C. (sealed vial), 7 days): 99.58%
- stability of the solid form ([1]; all tested conditions (40° C./75% RH, 25° C./60% RH, 80° C.), 7 days): stable under all tested conditions
- purity by HPLC after storage ([1]; all three samples: 40° C./75% RH, 25° C./60% RH, 80° C., one week): > 99.5%
- hygroscopicity [2]: non-hygroscopic
- weight increase (DVS) [2]: about 0.25%
- stability to compression (crystalline form by XRPD) ([5]; 100 MPa for 60 seconds): stable
- stability to compression (crystalline form by XRPD) ([5]; 250 MPa for 60 seconds): stable

Further lines, results first:

- solid form stability by XRPD ([1]; 25° C./60% RH, 7 days): stable
- solid form stability by XRPD ([1]; 40° C./75% RH, 7 days): stable
- solid form by XRPD after storage ([1]; 80° C. (sealed vial), 7 days): correspond to that for Form 7
SMILES: CCn1ncc2c1-c1cnc(N)c(c1)O[C@H](C)c1cc(F)ccc1-c1nn(C)nc1C2 [Form 2]

- weight increase (DVS) [2]: about 0.27%
SMILES: CCn1ncc2c1-c1cnc(N)c(c1)O[C@H](C)c1cc(F)ccc1-c1nn(C)nc1C2 [Form 7]

- hygroscopicity [2]: hygroscopic
- weight increase (DVS) [2]: about 2%
- weight increase (DVS) ([2]; listed as Form A of a Besylate Salt of Compound 1): 2%
- physical stability (form by XRPD) [4]: physically stable
SMILES: CCn1ncc2c1-c1cnc(N)c(c1)O[C@H](C)c1cc(F)ccc1-c1nn(C)nc1C2 [Form A of a besylate salt of Compound 1]
